In general, IC50 refers to the concentration that gives 50% inhibition.

Sequence of Cyclin-T1/Cyclin-dependent kinase 9 (O60563 whole entry, the tested form may be a part): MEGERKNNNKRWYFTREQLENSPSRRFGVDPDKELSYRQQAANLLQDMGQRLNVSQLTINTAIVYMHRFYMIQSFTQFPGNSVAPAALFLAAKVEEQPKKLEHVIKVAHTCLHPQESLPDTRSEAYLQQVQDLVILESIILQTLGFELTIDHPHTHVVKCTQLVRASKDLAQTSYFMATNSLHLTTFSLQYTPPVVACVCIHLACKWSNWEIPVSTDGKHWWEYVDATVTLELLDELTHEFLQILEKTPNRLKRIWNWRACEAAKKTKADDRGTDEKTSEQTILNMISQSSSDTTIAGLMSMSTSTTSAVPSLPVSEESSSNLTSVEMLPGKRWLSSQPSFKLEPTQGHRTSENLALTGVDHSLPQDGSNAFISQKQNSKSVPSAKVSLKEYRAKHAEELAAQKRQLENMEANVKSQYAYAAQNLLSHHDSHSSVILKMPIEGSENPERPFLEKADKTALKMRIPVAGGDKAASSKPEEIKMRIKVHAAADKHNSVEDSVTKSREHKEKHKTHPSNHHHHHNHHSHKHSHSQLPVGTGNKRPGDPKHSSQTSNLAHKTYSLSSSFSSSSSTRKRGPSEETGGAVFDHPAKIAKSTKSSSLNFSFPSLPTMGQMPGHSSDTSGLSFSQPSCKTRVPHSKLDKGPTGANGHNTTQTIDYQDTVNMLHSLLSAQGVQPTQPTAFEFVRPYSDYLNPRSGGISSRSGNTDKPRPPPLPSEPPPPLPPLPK
Sequence of Cyclin-T1/Cyclin-dependent kinase 9 (P50750 whole entry, the tested form may be a part): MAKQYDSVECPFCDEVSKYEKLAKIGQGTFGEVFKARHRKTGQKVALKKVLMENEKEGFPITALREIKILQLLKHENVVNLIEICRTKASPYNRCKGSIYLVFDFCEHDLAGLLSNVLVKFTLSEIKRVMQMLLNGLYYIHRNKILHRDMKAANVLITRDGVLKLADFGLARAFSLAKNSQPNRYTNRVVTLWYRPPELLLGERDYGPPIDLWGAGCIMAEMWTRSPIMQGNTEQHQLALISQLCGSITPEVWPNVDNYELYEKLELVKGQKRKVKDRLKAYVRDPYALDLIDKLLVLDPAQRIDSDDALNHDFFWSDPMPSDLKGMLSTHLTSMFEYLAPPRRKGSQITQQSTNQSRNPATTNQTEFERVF

The test has as its target Cyclin-T1/Cyclin-dependent kinase 9 (Homo sapiens, UniProt O60563+P50750). The test can be described thus: Inhibition of recombinant full length human N-terminal GST-fused CDK9 (1 to 372 residues)/His-tagged CyclinT1 (1 to 726 residues) expressed in baculovirus infected insect cells using FITC-X-GSRTPMY-NH2 as substrate preincubated for 10 mins followed by MgCl2 addition and measured after 90 mins in presence of 5 mM ATP by mobility shift assay.
As to `CC1(C)Cc2c(-c3cc(NC(=O)[C@H]4C[C@@H](O)C4)ncc3Cl)cnn2C1` [US10717746, Example 27], the IC50 was 25 nM. Take `CC(=O)N[C@@H]1CCC[C@H](C(=O)Nc2cc(-c3cnn4c3CC(C)(C)CC4)ccn2)C1` [US10717746, Example 44]: the IC50 was 8 nM. To `CC(=O)N[C@@H]1CCC[C@H](C(=O)Nc2cc(-c3cnn4c3CCCC4)c(F)cn2)C1` [US10717746, Example 63] belongs 51 nM; to `CC(=O)N[C@@H]1CCC[C@H](C(=O)Nc2cc(-c3cnn4c3CCCCC4)c(Cl)cn2)C1` [US10717746, Example 66], 23 nM; to `CC(=O)N[C@@H]1CC[C@H](C(=O)Nc2cc(-c3cnn4c3CC(C)(C)C4)c(Cl)cn2)C1` [US10717746, Example 48], 3 nM. To `CC(=O)N[C@@H]1CCC[C@H](C(=O)Nc2cc(-c3cnn4c3CC(C)(C)C4)c(C#N)cn2)C1` [US10717746, Example 39] belongs 62 nM. Take `CC(=O)N[C@@H]1CCC[C@H](C(=O)Nc2cc(-c3cn[nH]c3CC(C)(C)CO)c(Cl)cn2)C1` [US10717746, Example 82a]: the half-maximal inhibitory concentration (IC50) was determined as 139 nM.

On to `CC(=O)N[C@@H]1CCC[C@H](C(=O)Nc2cc(-c3cnn4c3NCCC4)c(Cl)cn2)C1` [US10717746, Example 15], for which the IC50 worked out at 350 nM.

Take `CC(=O)N[C@@H]1CCC[C@H](C(=O)Nc2cc(-c3cnn4c3CCCC4O)c(Cl)cn2)C1` (stereo partly specified) [US10717746, Example 78]: the concentration for half-maximal inhibition (IC50) was 60 nM. To `CC(=O)N[C@@H]1CCC[C@H](C(=O)Nc2cc(-c3cnn4c3CC(C)(C)C4)c(F)cn2)C1` [US10717746, Example 25] belongs 4 nM. Next, `CC(=O)N[C@@H]1CCC[C@H](C(=O)Nc2cc(-c3cn[nH]c3CCCCO)c(Cl)cn2)C1` [US10717746, Example 78a]: 85 nM.

For the origin of these results see BindingDB's records for doi:10.1021/acs.jmedchem.0c01754 (Astrazeneca, 2020).
